“Also recorded” adds a separate entry of the source. Read-outs that look alike come from different tables or passages of the source.

The subject of series [1] is zebrafish. It is filed as in vivo. The following applies: for rescue of behavioral phenotypes by pretreatment with the GABAAR antagonist PTX: violet light and eASR phenotypes, in words.
In series [2] the test system is zebrafish. In kind it is in vivo. The method, then:
Behavioral assays for pERK. Animals were treated with DMSO or drug for one hour then exposed to a low-volume acoustic stimulus every 10 seconds for 10 minutes. Optovin-treated animals were stimulated with violet light for one second every 10 seconds for 10 minutes. Videos were recorded to measure response to the stimulus and quantified by motion index (MI). […]

In series [3] the test system is human GABAARs (α1β2 and α1β2γ2). It is filed as cell-based. The source says:
To determine if these compounds targeted human GABAARs, we tested them in a fluorescent imaging plate reader (FLIPR) assay on HEK293 cells transfected with α1β2 and α1β2γ2 human GABAAR subtypes. […]. […] While some of the compounds appeared to function in this assay as negative allosteric modulators (NAMs), reductions in fluorescence were likely due to toxicity-induced cell loss (Fig. 2f, Supplementary Table 5).
We used the FLIPR system (Molecular Devices) to quantify GABA-evoked activity of human GABAARs. We chose a membrane potential dye (Molecular Devices) to measure changes in membrane potentials and stably transfected HEK293 cells that expressed α1, β2 and γ2. Since we observed an increase in GABA-evoked responses when transfected with γ2 transiently, we describe the cells as having a low level of γ-subunit expression, indicating heterogeneity of GABAAR compositions in the cell (α1β2 or α1β2γ2). To assay for direct agonists, fluorescence was subtracted pre- and post compound addition. To assay for PAMs, cells were treated with compound at 20 uM and then with 5 uM GABA.

Series [4] has as its system zebrafish. Put plainly: Optovin-response suppression assay (pain-related). The following applies: in words; relative to concentrations that caused eASRs.
Excerpt: To determine if any of the hit compounds may be analgesic, we used optovin-induced motor activity as a potential analgesia-related assay.
For series [5], the system named is zebrafish. Put plainly: Cortisol detection assay. In kind it is in vivo. The following applies: 7-day old larvae treated 1 h; in words. As for the experimental part: Cortisol levels were measured in zebrafish. Briefly, 15, 7-day old larvae were treated with the indicated compounds for 1 h. Larvae were anesthetized in ice-cold egg water and then snap-froze in an ethanol/dry ice bath. Larvae were then homogenized in 100 μL of water. Cortisol was extracted from the homogenate with 1 mL of ethyl acetate, the resulting supernatant was collected and the solvent allowed to evaporate. Cortisol was dissolved in 0.2% bovine serum albumin (A7030, Sigma) and frozen at −20 °C. For cortisol ELISA experiments, 96-well plates (VWR International) were treated with cortisol antibody (P01-92-94M-P, EastCoast Bio; […] in PBS) for 16 h at 4 °C, washed, and blocked with 0.1% BSA in PBS. Cortisol samples and cortisol-HRP (P91-92-91H, EastCoast Bio) were incubated at room temperature for 2 h and washed extensively with PBS containing 0.05% Tween-20 (Invitrogen). Detection of HRP was performed using tetramethylbenzidine (TMB: 22166-1, Biomol) and Tetrabutylammonium borohydride (TBABH: 230170-10 G, Sigma). Reaction was stopped using 1 M H2SO4. Absorbance was read at 450 nm in an ELISA plate reader (SpectraMax MS, Molecular Devices).

The subject of a further series is adult zebrafish. Description: Behavioral responses of adult zebrafish. The following applies: in words.
Series [6] deals with zebrafish. Description: Viability of anesthetic treated animals. The following applies: for alive/total 10 min: 10 minutes post treatment; for alive/total 1 hour: 1 hour post treatment; for alive/total 5 hours: 5 hours post treatment. In kind it is in vivo. The method, then: Behavioral assays for pERK. Animals were treated with DMSO or drug for one hour then exposed to a low-volume acoustic stimulus every 10 seconds for 10 minutes. Optovin-treated animals were stimulated with violet light for one second every 10 seconds for 10 minutes. Videos were recorded to measure response to the stimulus and quantified by motion index (MI). Animals were immediately […]
High speed imaging. Digital video was recorded at 500-1000 frames per second using an Integrated Design Tools NX5-S1 digital camera. Assay duration was 500-1000 ms. Low amplitude tap stimuli was delivered as described above. Videos and still images were assembled using Fiji (imageJ) and […]
RNAscope. Zebrafish (6 dpf) were fixed using 10% normal buffered formaldehyde overnight at 4 °C, dehydrated in 100% methanol and stored at -20 °C until the assay was performed. Fluorescent in situ hybridization was performed using the RNAScope kit (Advanced Cell Diagnostics)4 with the following modifications: target retrieval was performed using 150 mM Tris pH 9.5 for 15 minutes at 70 °C, washes were performed using 0.2x SSCT (0.01% Tween-20, […], 0.3mM TriNa-citrate, pH7), samples were stored overnight after probe hybridization and 2x 5 minute washes in 5x SSC ([…], pH7) at room temperature before amplification and detection steps were performed the following day.
Viability. Animals were scored manually to determine viability after anesthetic treatments. 100 animals were scored per condition at 10 minutes, 1 hour and 5 hours post treatment. Strong heart rate was observed under a dissecting scope (Leica M-80) for our viability score. […]
rdkit function FingerprintMols package written for python. Tanimoto similarity function was used with a […]

Setting [7] is: larvae, low-volume acoustic stimulus.
The mark [8] stands for this setting: compound at 20 uM then 5 uM GABA, DMSO = 1.
[9] abbreviates: compound at 20 uM then 5 uM GABA, Positive/Negative.

Regarding `COc1ccc2[nH]c(-c3ccccc3)c(CCN(C)C)c2c1` [BGC 20-761], the “enhanced acoustic startle response (eASR) phenotype, in words” value (“enhanced acoustic startle response” below) in the series on zebrafish [1] (setting [7]) is “reproducibly caused eASRs in vivo”. Besides, the “rescue of behavioral phenotypes by pretreatment with the GABAAR antagonist PTX” value (“rescue of behavioral phenotypes” below) in the series on zebrafish [1] is recorded as “partially rescued”. This compound also had a Phenoscore in the series with zebrafish [1] (zebrafish, in vivo) of 0.74. Moreover, the “pERK labeling (neuronal activity)” value in the series with zebrafish [2] (in words) is “reduced neuronal activity throughout most of the brain and increased activity in the caudal hindbrain neuron cluster”. Also, in series [3] (setting [8]), the “Ave Norm FLIPR Score” value is 1.189. In series [3] (in the presence of GABA), the “GABAAR PAM activity in FLIPR, in words” value is “PAM activity was not observed”. For the same compound, the “optovin response (optovin-induced motor activity)” value (“optovin response” for short) in the series on zebrafish [4] was “blocked the optovin response”.

In the case of `CCOC(=O)c1cccn1[C@H](C)c1ccccc1` [carboetomidate], the phenoscore category entry in the series with zebrafish [1] (average phenoscore at highest scoring treatment) is “intermediate (intermediate phenoscores (0.51 < x < 0.71))”. Moreover, the “enhanced acoustic startle response” value with zebrafish [1] (setting [7]) was “immobilized zebrafish and caused eASRs”. In the series on zebrafish [5], the cortisol levels result was “did not”.

For the compound `CCOC(=O)c1c(C)nc(-c2ccccc2)nc1NC(=O)Cc1ccccc1` [compound 5951201], in the series with zebrafish [5], the cortisol levels entry was “None of these compounds reduced cortisol levels”.

Consider `COc1ccc(OC)c(NS(=O)(=O)c2ccc(OC)c(Br)c2)c1` [compound 6029941], for which, in the series with zebrafish [1], the “rescue of behavioral phenotypes” value is “partially rescued”. Besides, the cortisol levels result in the series on zebrafish [5] is “None of these compounds reduced cortisol levels”. In series [3] (setting [8]), the “Ave Norm FLIPR Score” value amounted to 14.01. In addition, the “FLIPR Results” value in series [3] (setting [9]) is reported as “Positive”.

Turning to `O=S(=O)(Nc1cccc(Br)c1)c1ccc2c(c1)OCCO2` [compound 6225936], the cortisol levels result in the series with zebrafish [5] is given as “None of these compounds reduced cortisol levels”. Further, the “Ave Norm FLIPR Score” value in series [3] (setting [8]) is given as -14.7. For the same compound, in the series on zebrafish [4], the “optovin response” value is “only reduced the optovin response at concentrations that also reduced eASRs”.

`CCc1cc2c(=O)c(-c3ccccc3Cl)c(C)oc2cc1OC` [compound 7013338]: the phenocopy result with zebrafish [1] ([…], positive/negative) was “positive”. In addition, in the series with zebrafish [1], the “rescue of behavioral phenotypes” value is “partially rescued”. The “violet light response and acoustic startle in adult animals” value with adult zebrafish is listed as “reducing the violet light response, while increasing acoustic startle”. The “FLIPR Results” value in series [3] (setting [9]) is given as “Positive”. Also, the “GABAAR PAM activity in FLIPR, in words” value in series [3] (in the presence of GABA) is listed as “potentiated GABAARs significantly greater than positive controls; also recorded: significantly greater than the positive controls; also recorded: the most effective hit compound in the FLIPR assays; also recorded: activated human GABAARs more than any other hit compound”. Further, in the series on zebrafish [4], the “optovin response” value is on record as “did not suppress the optovin response”.

As for `CC(C)c1cccc(C(C)C)c1O` [propofol], the “enhanced acoustic startle response” value in the series on zebrafish [1] (zebrafish, in vivo) is listed as “caused enhanced acoustic startle responses”. Moreover, in the series on zebrafish [6] (3 µM), the “alive/total 10 min” value is 100/100, the “alive/total 1 hour” value was 100/100 and the “alive/total 5 hours” value is given as 100/100. In addition, in the series on zebrafish [6] (6 µM), the “alive/total 10 min” value was 100/100, the “alive/total 1 hour” value is 100/100 and the “alive/total 5 hours” value is reported as 100/100. In the series with zebrafish [6] (12 µM), the “alive/total 10 min” value is on record as 100/100, the “alive/total 1 hour” value is on record as 100/100 and the “alive/total 5 hours” value is 99/100. The “toxicity at the concentrations that caused eASRs” value in the series with zebrafish [6] (zebrafish, in vivo) is “Neither etomidate or propofol was toxic”. In the series on zebrafish [2] (zebrafish, in vivo), the “pERK labeling (neuronal activity)” value is reported as “broadly reduced”. For the same compound, in series [3], the “Ave Norm FLIPR Score” value was 34.52; the “FLIPR Results” value was “Positive”; the “GABAAR PAM activity in FLIPR, in words” value was “increased fluorescence in the presence of GABA”.

Source of the values: publication PMC6733874, “Zebrafish behavioural profiling identifies GABA and serotonin receptor ligands related to sedation and paradoxical excitation” (Nature Communications, 2019).
